Assay results: patent publication US11702402B2, “Small molecules that block proteasome-associated ubiquitin receptor RPN13 function and uses thereof” (DANA-FARBER CANCER INSTITUTE, INC., priority 2018, dated 2023)

Experiments:
[1] = test system: MM.1S Len-resistant cells; assay: MM.1S lenalidomide-resistant cell viability; assay type: cell-based, Human; conditions: 72 hours
Text: The experiment was repeated twice and JQRA concentration was increased (as indicated) at the second time.

[2] = test system: HCT116 and HCT116-Rpn13KO cell lines; assay: HCT116 and HCT116-Rpn13KO cell viability; assay type: cell-based; conditions: HCT116 versus HCT116-Rpn13KO; 48 hours; Wst-1
Method: FIGS. 8A and 8B show HCT116 and HCT116-Rpn13KO cell lines that were treated with WL40 or WL44 at the indicated concentrations for 48 hours. Wst-1 assay was used to test cell viability.
CRISPR-Cas9 genome editing was performed to generate Rpn13-knockout (Rpn13-KO) HCT116 and MM.1S cell lines. Cells were transfected with Rpn13-CRISPR/Cas9-knockout (KO) plasmid (Santa Cruz Biotechnology, Inc., Santa Cruz, Calif., USA) using Lipofectamine 2000 (Thermo Fisher Scientific, Waltham, Mass., USA) or the cell line Nucleofector Kit V (Amaxa Biosystems, Cologne, Germany), respectively. After 48 h incubation, green fluorescent protein (GFP)-positive cells were sorted. Rpn13 KO was confirmed by both protein expression studies and DNA sequencing.

[3] = test system: cyclin-B1, CDC25C, and CDCl2; assay: Cell-cycle regulatory protein immunoblot; assay type: cell-based, Human; conditions: MM.1S 200 nM; ANBL6.BR 1 μM; 16 hours
Method: (§1) FIGS. 22A to 22F show the mechanisms of WL40-induced MM cell death. […] MM.1S cells were treated with DMSO control or WL40 (200 nM) for 16 hours, and then analyzed for apoptosis using Annexin V/PI double staining assay (mean±SD; n=3; p<0.001). FIG. 22B is an immunoblot of MM.1S and ANBL6.BR cells, which were treated with DMSO control or WL40 (200 nM for MM.1S; 1 μM for ANBL6.BR) for 16 hours; protein lysates were then subjected to the immunoblotting using antibodies against poly ADP ribose polymerase (PARP), caspase-3, caspase-7, caspase-8, caspase-9, or β-actin. FL, full length; CF, cleaved fragment. FIG. 22C is a bar graph measuring enzymatic activity. MM.1S cells were treated with DMSO control or WL40 (200 nM) for 12 hours, followed by the measurement of caspase-3, caspase-8, or caspase-9 enzymatic activity (mean±SD; n=3; p<0.0001). FIG. 22D is an immunoblot of MM.1S and ANBL6.BR cells, which were treated with DMSO control or WL40 (200 nM for MM.1S; 1 μM for ANBL6.BR) for 16 hours; protein lysates were then subjected to the immunoblotting using specific antibodies against Cyclin-B1, Cell Division Cycle 25C (CDC25C), Cell Division Cycle 2 (CDCl2), or β-actin. […]

[4] = molecular target: RPN13 (Homo sapiens, UniProt Q16186); assay: Rpn13 immunoblot in RPMI-8226 cells; assay type: cell-based; parameters: endogenous in cells; host or cells: MM.1S; MM.1S-CRBN KO; RPMI-8226; ANBL6.BR; conditions: RPMI-8226 (p53-mutated); 400 nM; 16 hours
Sequence of RPN13 (Q16186 whole entry): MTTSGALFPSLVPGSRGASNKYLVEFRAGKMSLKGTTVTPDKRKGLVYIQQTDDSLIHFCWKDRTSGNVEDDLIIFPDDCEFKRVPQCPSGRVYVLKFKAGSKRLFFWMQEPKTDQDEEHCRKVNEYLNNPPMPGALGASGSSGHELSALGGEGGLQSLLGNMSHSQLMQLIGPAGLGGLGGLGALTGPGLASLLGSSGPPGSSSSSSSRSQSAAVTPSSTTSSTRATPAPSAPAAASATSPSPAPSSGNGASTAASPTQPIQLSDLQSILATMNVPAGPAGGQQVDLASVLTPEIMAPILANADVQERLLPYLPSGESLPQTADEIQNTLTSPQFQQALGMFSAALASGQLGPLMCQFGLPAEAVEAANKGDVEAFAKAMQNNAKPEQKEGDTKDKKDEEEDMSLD
Method: MM.1S cells, which were treated with DMSO control, bortezomib, or WL40 at indicated concentration for 3 hours; protein lysates were analyzed for different proteasome activities (CT-L, chymotrypsin-like; T-L, trypsin-like; C-L, caspase-like). FIG. 20B is a bar graph showing percent proteasome activity after normalization with DMSO control (mean±SD; n=3). Recombinant 20S proteasome was incubated with DMSO, bortezomib, or WL40 for 30 minutes, followed by assessment of the above-noted proteasome activities. FIG. 20C MM.1S cells were pretreated with exemplary proteasome inhibitor MG132 (10 μM) for 1 hour, followed by addition of WL40 (400 nM) for 8 hours. […] Total protein lysates were subjected to immunoblots for Rpn13 and α-tubulin. […] FIG. 20E ANBL6.BR cells were treated with WL40 (400 nM) or RA190 (500 nM) for 16 hours; protein lysates were subjected to immunoblot analysis using anti-Rpn13 or anti-β-actin Abs.
Cellular protein extracts were prepared using RIPA lysis buffer (50 mM Tris-HCl, 150 mM NaCl, 1% NP-40, 0.5% sodium deoxycholate, and 0.1% SDS). […]
Next, the effect of WL40 on additional MM cell lines, including p53-mutated RPMI-8226 cells or bortezomib-resistant ANBL6.BR cells, was evaluated. […]

[5] = test system: RPMI-8226 cells; assay: RPMI-8226 cell viability; assay type: cell-based, Human; conditions: p53-mutated RPMI-8226; 48 hours
Text: The IC50 of WL40 for cell lines is shown.

[6] = test system: MM.1S cells; assay: Annexin V/PI apoptosis assay in MM.1S cells; assay type: cell-based, Human; conditions: 200 nM, 16 hours
Method: as §1

Row | Compound | cytotoxicity (percentage of viable cells) [1] | RPN13 dependence of cytotoxicity [2] | levels of cell-cycle regulatory proteins [3] | Rpn13 levels (immunoblot) [4] | cytotoxic activity (cell viability) [5] | apoptosis (Annexin V/PI) [6]
1 | Cl.N[C@@H](Cc1ccccc1)C(=O)N1C/C(=C/c2ccc(Cl)c(Cl)c2)C(=O)/C(=C\c2ccc(Cl)c(Cl)c2)C1 [RA190, reference compound] | more robust MM cytotoxicity | – | – | – | – | –
2 | O=C1CCC(N2C(=O)c3cccc(NCCOCCOCCOCCC(=O)N[C@@H](Cc4ccccc4)C(=O)N4C/C(=C\c5ccc(Cl)c(Cl)c5)C(=O)/C(=C/c5ccc(Cl)c(Cl)c5)C4)c3C2=O)C(=O)N1 (stereo partly drawn) [WL40] | – | RPN13-dependent | reduction in the levels of cell-cycle regulatory proteins | induced RPN13 degradation | cytotoxic activity | increase in early- (Annexin V^+/PI^−) and late-stage (Annexin V^+/PI^+) apoptosis
